# Legend:
# [1] = system: herpes simplex type I (VPG-I/Leningrad/248/88); assay: Activity on herpes simplex virus: cytopathic action of the virus on Vero cells; type: cell-based; conditions: 36 hours; for number of cells in 100 fields (unchanged cells): cell control 12000
# Description: The antiviral activity was studied relative to the virus herpes simplex type I (VPG-I/Leningrad/248/88) by a standard method. The virus was grown on a reinoculated Vero cell culture obtained from the cell culture bank of the Institute of Cytology of the Russian Academy of Sciences.
# To cells grown on medium RPMI-1640 with 10% calf serum and placed in the wells of a 96-well plate, the virus was added to give a final concentration of 10 particles/ml and the claimed compounds dissolved in DMSO were added to give a final concentrations of 100, 10, and 1 mg/l. We used 5 individual wells for every concentration tested. The plate was incubated for 60 min at 38° C. in a CO2 incubator. After incubation the virus was removed and new medium was added that contained the claimed compounds in the test concentrations.
# The results were evaluated according to the existence of a cytopathic action of the virus on the cells after 36 hours of incubation at 38° C. in the CO2 incubator.
# The following controls were used in the experiment:
# 3. Control of antiviral activity of an antiviral preparation—acylcovir.
# To access the cytopathic effect of the virus, we counted the number of unchanged cells in 100 fields formed by a specialized grid on the eyepiece of the inversion microscope.
# [2] = system: primary culture of human lymphocytes; assay: Interferon-inducing activity in primary culture of human lymphocytes (immunoenzyme IFN determination); type: cell-based; set-up: unit of the concentration uncertain; conditions: 24 hours of incubation
# Description: Interferon synthesis induction by the claimed preparations was conducted on a primary culture of human lymphocytes (the cells in the human body are the main producers of interferon). To obtain a culture of the lymphocytes we used fresh blood (12 hours after collection) from healthy […] (not from the second group).
# The lymphocyte concentration was determined after staining with methyl blue and the number of cells in the Goryaev chamber was calculated. […] The final concentration of the lymphocytes in the induction mixture was 3·10^6 cells/ml. The following controls were processed in parallel with the test samples:
# The control and the experimental samples were incubated for 24 hours at 37° C. Following incubation the samples were centrifuged at 2000 g to settle out the cellular elements and the INF-containing supernatant was taken from the samples and analyzed for INF content. The cell residue was resuspended in the same volume of nutrient medium, stained with a vital dye—trypan blue—and the number of cells in the Goryaev chamber was calculated (as described above) to determine the cytotoxic activity of the preparations.
# For the quantitative determination of INF in the control and experimental samples we used the ProCon IF2 Plus immunoenzyme test system sold by TOO Proteinovyi Kontur. To determine the quantity of interferon s in the sample we used a solid-phase immunoenzyme method utilizing horseradish peroxidase as the enzyme indicator. The activity of the bound peroxidase was measured using an automated photometer at a wavelength of 450 nm for the microplanchets with a microprocessor. […] On the basis of the results obtained we plotted a calibration curve that allowed us to obtain data expressed in International Units (IU) from the microprocessor of the automated photometer. The results of the analysis are expressed in IU of activity of INF per ml in the given induction system containing 3·10^6 lymphocytes/ml. Every experimental and control point was studied in 4 parallel runs.
# The results obtained were analyzed statistically using the t-test and the confidence interval at p=0.05 was calculated. Analysis of the convergence of the results of the parallel tests were performed.
# [3] = system: C. trachomatis D323; assay: Activity on Chlamydia trachomatis in McCoy and L929 cell cultures; type: cell-based; conditions: 100 mg/l, 48 hours
# Description: The antimicrobial activity of the claimed compounds was studied on C. trachomatis […]-a standard strain from the collection of the Department of Microbiology of the Pavlov St.-Petersburg State University. This strain was isolated from a patient with […] urethritis. […] In the work reported here we used McCoy and L929 cell cultures obtained from the Institute of Cytology of the Russian Academy of Sciences. The cells were grown in flasks of neutral glass in RPMI-1640 medium with an addition of 10% fetal calf serum. The experiment was placed in glass (toxicity-free) flat-bottomed flasks and covered with glass. The cells were introduced into the medium in a final concentration of 1·10 cells/ml. […] The sample was centrifuged at 2400 g for 60 min at room temperature and incubated at 37° C. for 2 hours. […] A parallel series of samples was run using medium without the cycloheximide in order to avoid its influence on the test substances. The samples were incubated for 48 hours in a CO2 incubator. […] The results were evaluated from the detection of chlamydia cytoplasmatic inclusion by an immunoenzyme method (MicroTrac Chlamydia trachomatis Direct Specimen Test) and from chlamydia antigens using CylaMonoScreen (Russian-British Joint Venture, 66 Regent's Park Road, London NW 1 7SX).
# [4] = system: non-linebred white mice; assay: Acute toxicity (LD50) in mice; type: in vivo; conditions: mice 18-20 g; by mouth or intravenously; observation period 14 days
# Description: Acute toxicity was determined on non-linebred white mice weighing 18-20 g. Emulsions of certain of the claimed compounds were prepared in a range of concentrations: 1500, 700, 500, 100, 20 and 5 μg/kg. Five animals were used to study each specific concentration of a compound. The preparation was administered once a day by mouth or intravenously. The observation period was 14 days On days 1, 8 and 15 the animals in every group were weighed. For a control we used animals who received the emulsion without the test compounds.
# All animals, both that died in the course of the experiment and those that survived to the end of the experiment, were opened to allow macroscopic examination of internal organs.
# In the course of the experiment no loss of weight was observed or any change in behavior or external appearance, nor was there any loss of life. Based on the results of the macroscopic examination of internal organs of the animals in the test and the control groups, no pathological findings were made (Table 7).
# [5] = system: herpes simplex type I (VPG-I/Leningrad/248/88); assay: Activity on herpes simplex virus: cytopathic action of the virus on Vero cells; type: cell-based; conditions: 50 mg/l, 36 hours
compound,measurement,setting,value
Oc1nc(S)nc2c1C(c1ccc(Cl)cc1)c1c(O)nc(S)nc1O2 [VIII],percent protection of the cells against the virus compared to the cell culture control,[1]; 10 mg/l,20%
same,number of cells in 100 fields (unchanged cells),[1]; 10 mg/l,2400
same,percent protection of the cells against the virus compared to the cell culture control,[1]; 100 mg/l,90%
same,number of cells in 100 fields (unchanged cells),[1]; 100 mg/l,10800
same,Interferon-inducing activity of the drug; content of INF in induction mixture,[2]; 1 (unit uncertain),1.5 ± 1.0 IU/3 · 10^4 lymp/ml
same,Interferon-inducing activity of the drug; content of INF in induction mixture,[2]; 10 (unit uncertain),23.2 ± 1.5 IU/3 · 10^4 lymp/ml
same,Interferon-inducing activity of the drug; content of INF in induction mixture,[2]; 100 (unit uncertain),70.5 ± 2.5 IU/3 · 10^4 lymp/ml
same,percent protection of the cells against infection,[3],60%
same,number of cells in 100 fields (unchanged cells),"[3]; cell control 8000, infected cell control 6400",7360
same,LD50,[4],1800 mg/kg
same,percent protection of the cells against the virus compared to the cell culture control,[5],50%
same,number of cells in 100 fields (unchanged cells),[5]; cell control 12000,6000

# From US6340755B1, “5H-Pyrano[2,3-d: 6,5-d']dipyrimidine derivatives having an antibacterial, antiviral and immuno-modulating activity” (Natural Drug Sciences LLC, priority 2000, dated 2002)
